Literature values, collected in patent publication US9241502B2, “Animal feed compositions capable of reducing the incidence of fescue toxicosis in mammals” (priority 2005, dated 2016).

Test system: lactating dairy cattle
Conditions: as a single ingredient

## Vitamin E
  effectiveness against fescue toxicosis: not found to be effective
